Results as given in ChEMBL document CHEMBL1681755, “Antiviral agents 3. Discovery of a novel small molecule non-nucleoside inhibitor of hepatitis B virus (HBV)” (Bioorg Med Chem Lett, 2011).

Legend:
[1] = system: Hepatitis B virus; assay: Antiviral activity against Hepatitis B virus infected in human HepG2(2.2.15) cells assessed as reduction in viral DNA by Southern blotting; type: functional, organism-based
[2] = Cytotoxicity against human HepG2(2.2.15) cells by neutral red dye uptake assay; type: functional
[3] = system: HepG2; assay: Cytotoxicity against human HepG2 cells after 3 days by neutral red dye uptake assay; type: functional; conditions: HepG2, 72 h
[4] = system: Huh-7; assay: Cytotoxicity against human HuH7 cells after 4 days by neutral red dye uptake assay; type: functional; conditions: Huh-7, 96 h
[5] = system: Hepatitis B virus; assay: Antiviral activity against Hepatitis B virus infected in human HepG2 cells assessed as reduction in viral DNA after 3 days by Southern blotting; type: functional, organism-based; conditions: HepG2, 72 h
[6] = system: Hepatitis B virus; assay: Antiviral activity against Hepatitis B virus infected in human Huh7 cells assessed as reduction in viral DNA after 4 days by Southern blotting; conditions: Huh-7, 96 h

CC1(C)CCc2c(ccc3c2C(=O)C(O)=C(C2=C(C4=C(O)C(=O)c5c(ccc6c5CCC(C)(C)O6)C4=O)C(=O)c4ccccc4C2=O)C3=O)O1
EC50 [1]: 3900 nM
CC50 [2]: 1430 µM

CC1(C)C=Cc2c(ccc3c2C(=O)C(O)=C(C2=C(C4=C(O)C(=O)c5c(ccc6c5C=CC(C)(C)O6)C4=O)C(=O)c4ccccc4C2=O)C3=O)O1
EC50 [1]: 10000 nM
CC50 [2]: 1370 µM

CC(C)=CCC[C@]1(C)C=Cc2c(ccc3c2C(=O)C(O)=C(C2=C(C4=C(O)C(=O)c5c(ccc6c5C=C[C@@](C)(CCC=C(C)C)O6)C4=O)C(=O)c4ccccc4C2=O)C3=O)O1
EC50 [1]: > 10000 nM
CC50 [2]: 14 µM

CC1(C)C=Cc2c(ccc3c2C(=O)C(O)=C(C2=C(C4=C(O)C(=O)c5c(ccc6c5C=CC(C)(C)O6)C4=O)C(=O)c4c(ccc5c4CCC(C)(C)O5)C2=O)C3=O)O1
EC50 [1]: 9 nM
CC50 [2]: 279 µM

O=C1C(O)=C(C2=C(C3=C(O)C(=O)c4ccccc4C3=O)C(=O)c3ccccc3C2=O)C(=O)c2ccccc21
EC50 [1]: > 10000 nM
CC50 [2]: > 300 µM

CC(C)=CCC[C@]1(C)C=Cc2c(ccc3c2C(=O)C(O)=C(C2=C(C4=C(O)C(=O)c5c(ccc6c5C=C[C@@](C)(CCC=C(C)C)O6)C4=O)C(=O)c4c(ccc5c4C=C[C@@](C)(CCC=C(C)C)O5)C2=O)C3=O)O1 [CONOCURVONE]
EC50 [1]: > 10000 nM
CC50 [2]: > 100 µM

CC1(C)C=Cc2c(ccc3c2C(=O)C(O)=C(C2=C(C4=C(O)C(=O)c5c(ccc6c5C=CC(C)(C)O6)C4=O)C(=O)c4c(ccc5c4C=CC(C)(C)O5)C2=O)C3=O)O1
EC50 [1]: 7900 nM
CC50 [2]: 45 µM

CC1(C)C=Cc2c(ccc3c2C(=O)C=C(O)C3=O)O1
CC50 [3]: > 25 µM
EC50 [1]: 4300 nM
CC50 [2]: > 300 µM
CC50 [4]: > 25000 nM
EC50 [5]: 1900 nM
EC50 [6]: 2500 nM

COc1ccc2c(c1)C(=O)C(O)=C(C1=C(C3=C(O)C(=O)c4cc(OC)ccc4C3=O)C(=O)c3c(ccc4c3CCC(C)(C)O4)C1=O)C2=O
EC50 [1]: 660 nM
CC50 [2]: > 300 µM

COc1ccc2c(c1)C(=O)C(C1=C(C3=C(O)C(=O)c4ccc(OC)cc4C3=O)C(=O)c3ccccc3C1=O)=C(O)C2=O
EC50 [1]: 56000 nM
CC50 [2]: 295 µM

COc1cccc2c1C(=O)C(C1=C(C3=C(O)C(=O)c4cccc(OC)c4C3=O)C(=O)c3ccccc3C1=O)=C(O)C2=O
EC50 [1]: > 10000 nM
CC50 [2]: > 300 µM

Nc1ccn([C@@H]2CS[C@H](CO)O2)c(=O)n1 [LAMIVUDINE]
CC50 [3]: > 25 µM
EC50 [1]: 60 nM
CC50 [2]: 2130 µM
CC50 [4]: 100 nM
EC50 [5]: > 2500 nM
EC50 [6]: 100 nM

COc1ccc2c(c1)C(=O)C(C1=C(O)C(=O)c3c(ccc4c3C=CC(C)(C)O4)C1=O)=C(C1=C(O)C(=O)c3c(ccc4c3C=CC(C)(C)O4)C1=O)C2=O
EC50 [1]: 1500 nM
CC50 [2]: 466 µM

CC1(C)CCc2c(ccc3c2C(=O)C(O)=C(C2=C(C4=C(O)C(=O)c5c(ccc6c5CCC(C)(C)O6)C4=O)C(=O)c4c(ccc5c4CCC(C)(C)O5)C2=O)C3=O)O1
EC50 [1]: 96 nM
CC50 [2]: 44 µM

COc1cc2c(cc1OC)C(=O)C(C1=C(C3=C(O)C(=O)c4cc(OC)c(OC)cc4C3=O)C(=O)c3ccccc3C1=O)=C(O)C2=O
EC50 [1]: 400 nM
CC50 [2]: > 300 µM

COc1ccc2c(c1)C(=O)C(O)=C(C1=C(C3=C(O)C(=O)c4cc(OC)ccc4C3=O)C(=O)c3ccccc3C1=O)C2=O
EC50 [1]: 50 nM
CC50 [2]: 58 µM

Nc1nc(O)c2ncn(CCC(CO)CO)c2n1 [PENCICLOVIR]
EC50 [1]: 3400 nM
CC50 [2]: 552 µM

CC(C)Oc1ccc2c(c1)C(=O)C(C1=C(O)C(=O)c3c(ccc4c3C=CC(C)(C)O4)C1=O)=C(C1=C(O)C(=O)c3c(ccc4c3C=CC(C)(C)O4)C1=O)C2=O
EC50 [1]: 154 nM
CC50 [2]: > 300 µM
